Assay results: US20170130064A1, “NOVEL POLYSILOXANE-BASED FOULING-RELEASE COATS COMPRISING POLY(OXYALKYLENE)-MODIFIED ALCOHOLS” (HEMPEL A/S, priority 2014, published 2017)
Marks after values point to notes of the source that are not given here.

Assay: Surface tension above critical micelle concentration in water (pendant drop method)
Type: physicochemical
Conditions: 5 wt % of the compound in demineralized water, picture 5 seconds after drop
Protocol: The surface tension of a liquid/air interface can be determined by the “pendant drop method” as described in “Encyclopedia of Surface and Colloid Science” by Marcel Dekker, 2002.
Samples were prepared as 5 wt % of the compound in demineralized water mixed in a 50 mL PE bottle. At 5 wt % it is ensured that concentrations are well above the critical micelle concentration. The samples were left over-night on a shaking table to ensure saturation and/or mixing. The measurements by “pendant drop method” were performed with DataPhysics OCA-15 pus, Dynamic Contact Angle, using software SCA202 V 4.5.8. The needle was a Disposable needle SNP-D 165/137, and the volume drop was 15 microliters.
The picture from which the surface tension is calculated is taken 5 seconds after the drop is forced out of the syringe.

Row | Surface tension [mN/m] | Substance
1 | 43 | PEG-6 stearate
2 | 35 | PEG-12 stearate
3 | 36 | PEG-20 oleyl ether
4 | 43 | PEG-20 sorbitan monostearate

Row | Substance | Surface tension [mN/m]
5 | PEG-12 nonylphenol, branched | 32

Assay: not given
Conditions: From supplier data sheet; cited from earlier work

Row | Substance | Surface tension
6 | PEG-6 decyl alcohol | 26.6* mN/m
7 | PEG-7 lauryl alcohol | 29* mN/m
8 | PEG-8 branched C12-C14 secondary alcohol | 27* mN/m
9 | PEG-11 branched C12-C14 secondary alcohol | 30* mN/m
10 | PEG-22 oleyl alcohol | 44* mN/m
